Among the data in patent US7671074B2, “Sulfonylguanidine compounds and pharmaceutical uses thereof” (Gruenenthal GmbH, priority 2000, dated 2010) are IC50 and Percent inhibition values, retold here.

By IC50 is commonly meant the concentration at which inhibition is half-maximal. Low values mean greater potency in that assay, high ones weaker potency in that assay.

The first assay concerns the target gabapentin binding site. Description: Binding assay: displacement of gabapentin from its binding site. The settings on record: displacement of gabapentin from its binding site. As to the method:
Gabapentin was used in a binding assay in order to check the binding and affinities of the selected compounds. The affinity of the compounds according to the invention was measured via the displacement of gabapentin from its binding site.
`N/C(=N\S(=O)(=O)c1ccc(Br)cc1)NCc1ccccn1` [Example 32, N-{amino[(pyridin-2-yl-methyl)-amino]-methylene}-4-bromobenzenesulfonamide] came in with an IC50 of 218 nM.

`N/C(=N\S(=O)(=O)c1ccc(Cl)c(Cl)c1)NCc1ccccn1` [Example 33, N-{amino[(pyridin-2-yl-methyl)-amino]-methylene}-3,4-dichlorobenzenesulfonamide] came in with an IC50 of 1100 nM.

`CC(C)c1ccc(S(=O)(=O)/N=C(\N)NCc2ccccn2)cc1` [Example 34, N-{amino[(pyridin-2-yl-methyl)-amino]-methylene}-4-isopropylbenzenesulfonamide] had an IC50 of 33 nM. Compared with the last molecule, the IC50 is about 33-fold lower.

Molecule `N/C(=N\S(=O)(=O)c1ccc(I)cc1)NCc1ccccn1` [Example 35, N-{amino[(pyridin-2-yl-methyl)-amino]-methylene}-4-iodobenzenesulfonamide] had an IC50 of 50 nM.

Molecule `N/C(=N\S(=O)(=O)c1ccc2ccccc2c1)NCc1ccccn1` [Example 37, Naphthalene-2-sulfonic acid amino-[(pyridin-2-yl-methyl)-amino]-methylene amide] registered an IC50 of 122 nM. This IC50 is about 2.4-fold higher than that of the molecule before.

As to `Cc1cc(C)c(S(=O)(=O)/N=C(\N)NCc2ccccn2)c(C)c1` [Example 41, N-{amino[(pyridin-2-yl-methyl)-amino]-methylene}-2,4,6-trimethylbenzenesulfonamide], the IC50 came out at 438 nM.

`CCCc1ccc(S(=O)(=O)/N=C(\N)NCc2ccccn2)cc1` [Example 42, N-{amino[(pyridin-2-yl-methyl)-amino]-methylene}-4-propylbenzenesulfonamide] displayed an IC50 of 27 nM.

Molecule `COc1ccc(S(=O)(=O)/N=C(\N)NCc2ccccn2)cc1` [Example 43, N-{amino[(pyridin-2-yl-methyl)-amino]-methylene}-4-methoxybenzenesulfonamide] showed an IC50 of 634 nM.

Consider `N/C(=N\S(=O)(=O)c1cccc2ccccc12)NCc1ccccn1` [Example 44, Naphthalene-1-sulfonic acid amino-[(pyridin-2-yl-methyl)-amino]-methylene amide], for which the IC50 is 5300 nM.

Turning to `N/C(=N\S(=O)(=O)c1cccc2cccnc12)NCc1ccccn1` [Example 47, Quinoline-8-sulfonic acid amino-[(pyridin-2-yl-methyl)-amino]-methylene amide], the IC50 was determined as 2800 nM. This IC50 is about 1.9-fold lower than that of the molecule before.

Molecule `Cc1c(S(=O)(=O)/N=C(\N)NCc2ccccn2)sc2ccc(Cl)cc12` [Example 48, 5-chloro-3-methylbenzo[b]thiophene-2-sulfonic acid amino-[(pyridin-2-yl-methyl)-amino]-methylene amide] gave an IC50 of 136 nM.

Still in this assay, the particulars now being: inhibition/displacement of gabapentin; concentration 10^−5 μM [sic].
As for `Cc1ccc(S(=O)(=O)/N=C(\N)NCc2ccccc2)cc1` [Example 2, N-[amino-(benzylaminomethylene)]-4-methylbenzene-sulfonamide], the Percent inhibition is 69.7%.

For the molecule `Cl.N/C(=N\S(=O)(=O)c1ccccc1)NCc1ccccn1` [Example 36, N-{amino[(pyridin-2-yl-methyl)-amino]-methylene}-benzenesulfonamide], the Percent inhibition is recorded as 17%.

In turn, `CC(=O)Nc1ccc(S(=O)(=O)/N=C(\N)NCc2ccccn2)cc1.Cl` [Example 39, N-[4-({amino-[(pyridin-2-yl-methyl)-amino]-methylene}-sulfamoyl)-phenyl]-acetamide] registered a Percent inhibition of 27%.

For `Cl.N/C(=N\S(=O)(=O)c1ccc(F)cc1)NCc1ccccn1` [Example 40, N-{amino[(pyridin-2-yl-methyl)-amino]-methylene}-4-fluorobenzenesulfonamide], the Percent inhibition was determined as 21%.

In turn, `Cc1cccc(S(=O)(=O)/N=C(\N)NCc2ccccn2)c1` [Example 45, N-{amino[(pyridin-2-yl-methyl)-amino]-methylene}-3-methylbenzenesulfonamide] gave a Percent inhibition of 35%.

Molecule `N/C(=N\S(=O)(=O)c1cccs1)NCc1ccccn1` [Example 46, Thiophene-2-sulfonic acid amino-[(pyridin-2-yl-methyl)-amino]-methylene amide] showed a Percent inhibition of 36%.
